Data on five molecules can be found in ChEMBL document CHEMBL1152038, “Quaternised renzapride as a potent and selective 5-HT4 receptor agonist” (Bioorg Med Chem Lett, 1993).

In test [1] the target is T1, Serotonin 3 (5-HT3) receptor (Rattus norvegicus, UniProt P35563+Q9JJ16).
T1 sequence (P35563 whole entry): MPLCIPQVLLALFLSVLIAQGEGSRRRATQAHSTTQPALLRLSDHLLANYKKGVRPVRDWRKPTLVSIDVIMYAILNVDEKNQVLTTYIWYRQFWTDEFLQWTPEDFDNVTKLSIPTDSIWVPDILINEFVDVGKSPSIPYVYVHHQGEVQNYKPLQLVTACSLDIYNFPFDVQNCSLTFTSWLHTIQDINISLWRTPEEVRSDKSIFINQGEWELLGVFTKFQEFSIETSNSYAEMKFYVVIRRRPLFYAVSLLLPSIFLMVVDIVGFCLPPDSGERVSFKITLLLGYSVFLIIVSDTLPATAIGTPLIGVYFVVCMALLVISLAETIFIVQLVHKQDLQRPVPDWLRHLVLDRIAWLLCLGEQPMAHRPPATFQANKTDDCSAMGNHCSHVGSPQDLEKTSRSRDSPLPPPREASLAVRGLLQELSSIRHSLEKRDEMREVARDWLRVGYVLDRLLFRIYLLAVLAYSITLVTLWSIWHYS
T1 sequence (Q9JJ16 whole entry): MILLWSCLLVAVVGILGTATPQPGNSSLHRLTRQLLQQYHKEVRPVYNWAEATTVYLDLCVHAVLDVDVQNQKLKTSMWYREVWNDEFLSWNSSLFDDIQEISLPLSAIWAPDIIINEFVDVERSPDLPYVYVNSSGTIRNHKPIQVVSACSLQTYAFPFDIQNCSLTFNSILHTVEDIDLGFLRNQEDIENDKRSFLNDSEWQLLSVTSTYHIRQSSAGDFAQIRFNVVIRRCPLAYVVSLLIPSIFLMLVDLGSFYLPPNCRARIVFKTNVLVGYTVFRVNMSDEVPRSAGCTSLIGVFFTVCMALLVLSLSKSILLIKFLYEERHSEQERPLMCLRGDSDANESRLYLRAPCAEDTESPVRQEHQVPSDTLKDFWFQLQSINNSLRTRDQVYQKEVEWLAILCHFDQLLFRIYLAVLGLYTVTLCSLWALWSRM
The experiment in a line: Tested for its binding affinity by measuring its ability to displace [3H]granisetron from 5-hydroxytryptamine 3 receptor in rat cortex.

Test [2] has as its target 5-hydroxytryptamine receptor 4 (Rattus norvegicus) (UniProt Q62758). The experiment in a line: Tested for its efficacy against the 5-hydroxytryptamine 4 receptor located in the rat esophageal tunica muscularis mucosae. The note with it: Muscularis mucosa. It is filed as tissue-based.
The target of test [3] is 5-hydroxytryptamine receptor 4 (Rattus norvegicus, UniProt Q62758). The experiment in a line: Tested for its agonist potency against the 5-hydroxytryptamine 4 receptor located in the rat esophageal tunica muscularis mucosae. The test is classed as functional, tissue-based, Muscularis mucosa.
Sequence of 5-hydroxytryptamine receptor 4 (Q62758 whole entry): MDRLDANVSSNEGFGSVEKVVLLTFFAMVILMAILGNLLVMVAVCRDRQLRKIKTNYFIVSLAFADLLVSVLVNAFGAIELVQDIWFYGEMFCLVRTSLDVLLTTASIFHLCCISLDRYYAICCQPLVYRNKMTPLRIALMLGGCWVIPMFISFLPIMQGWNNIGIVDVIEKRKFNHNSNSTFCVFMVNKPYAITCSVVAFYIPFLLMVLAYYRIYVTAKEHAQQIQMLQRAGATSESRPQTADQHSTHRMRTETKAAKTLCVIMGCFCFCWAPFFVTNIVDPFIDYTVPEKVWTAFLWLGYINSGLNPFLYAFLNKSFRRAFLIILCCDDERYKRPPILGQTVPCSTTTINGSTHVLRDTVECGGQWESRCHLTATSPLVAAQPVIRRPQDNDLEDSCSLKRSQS

Sequence of 5-hydroxytryptamine receptor 4 (Rattus norvegicus) (Q62758 whole entry): as above

As for `CC(C)n1c(=O)n(C(=O)NC2CC3CCC(C2)N3C)c2ccccc21` (centres undefined), the inhibitory constant (Ki) (commonly a measure of affinity in units of concentration, obtained from inhibition or displacement) in test [1] was 1.58 nM. In test [2], this molecule yielded an Intrinsic activity of 0.9. In test [3], the midpoint of the response, the EC50, lay at 12.6 nM.

`CCn1c(=O)n(C(=O)NC2CC3CCC(C2)N3C)c2ccccc21` (centres undefined) gave a Ki in test [1] of 3.98 nM. The same molecule registered an Intrinsic activity in test [2] of 0.7. Moreover, in test [3], a half-maximal response (EC50) required 10 nM.

Take `CCCC[N+]12CCCC(C1)C(NC(=O)c1cc(Cl)c(N)cc1OC)CC2` (centres undefined): in test [1], the affinity corresponds to a Ki of 126 nM. Also, the Intrinsic activity in test [2] turned out to be 0.79. Further, in test [3], the half-maximal effective concentration (EC50) (commonly the concentration at which the effect is half-maximal) is 9.55 nM.

For the molecule `CCN(CC)CCNC(=O)c1cc(Cl)c(N)cc1OC` [METOCLOPRAMIDE], the affinity in test [1], expressed as Ki, was 158 nM. The Intrinsic activity in test [2] worked out at 0.8.

In the case of `COc1cc(N)c(Cl)cc1C(=O)NC1CCN2CCCC1C2` (centres undefined) [RENZAPRIDE], in test [1], the inhibition constant Ki was 5.01 nM. This molecule also registered an Intrinsic activity in test [2] of 0.8. This molecule registered an EC50 in test [3] of 63.1 nM.
